Key:
[1] = Plasma exposure after a single IP dose of filanesib and/or pomalidomide (Example 1); format: in vivo; conditions: mouse, male CD-1 mice
Protocol: Naïve male CD-1 mice were administered a single intraperitoneal (“IP”) bolus dose of filanesib (12.5 mg/kg) and/or pomalidomide (10 mg/kg). Blood was collected at 4, 8, 12, 16, 20 and 24 hours via cardiac puncture, ethylenediaminetetraacetic acid (“EDTA”) plasma was prepared, and concentration of plasma analytes were measured.

RPMI-8226 xenografts [2] = assay: RPMI-8226 xenograft tumor growth inhibition (Example 2); format: in vivo, mice; conditions: for % Complete Response / % Max Body Weight Loss: RPMI-8226, filanesib 12.5 mg/kg IP days 1 and 2, pomalidomide 10 mg/kg IP QD days 1-21; for % Complete Response: SCID-beige mice, no palpable tumor for 2 consecutive measurements; for cure rate: RPMI-8226 model, filanesib 12.5 mg/kg IP D1, 2, pomalidomide 10 mg/kg IP QD, cure = no palpable tumor 100 days from study initiation
Protocol: (§1) Female SCID-beige mice were inoculated subcutaneously with 10×10^6 H929 (FIG. 2), RPMI-8226 (FIG. 3) or JJN3 (FIG. 4) tumor cells in 50% 1× phosphate buffered saline (“PBS”) 50% Matrigel™ (100 μL). […] Tumor size and animal body weight were measured on the days indicated in FIGS. 2-4 over the course of each study. Tumor volume was calculated using the formula, volume=[…]. Percent complete response indicates an animal has no palapable tumor for 2 consecutive measurements.

JJN3 xenografts = assay: JJN3 xenograft tumor growth inhibition (Example 2); format: in vivo, mice; conditions: for % Complete Response: SCID-beige mice, filanesib 12.5 mg/kg IP days 1 and 2, pomalidomide 10 mg/kg IP QD days 1-19, no palpable tumor for 2 consecutive measurements; for % Max Body Weight Loss: filanesib 12.5 mg/kg IP days 1 and 2, pomalidomide 10 mg/kg IP QD days 1-19
Protocol: as §1

H929 xenografts = assay: H929 xenograft tumor growth inhibition (Example 2); format: in vivo, mice; conditions: for % Complete Response: SCID-beige mice, filanesib 12.5 mg/kg IP days 1 and 2, pomalidomide 10 mg/kg IP QD days 1-21, no palpable tumor for 2 consecutive measurements; for % Max Body Weight Loss: filanesib 12.5 mg/kg IP days 1 and 2, pomalidomide 10 mg/kg IP QD days 1-21
Protocol: as §1

[3] = Hematology profiles and body weight in naive CD-1 mice (Example 3); format: in vivo; conditions: for neutropenia / neutrophil loss, in words: hematology analysis in mice
Protocol: Naïve male CD-1 mice were administered saline vehicle (10 mL/kg, IP, days 1 and 2), filanesib (12.5 mg/kg, IP, days 1 and 2) and/or pomalidomide (1 or 10 mg/kg, IP, QD, days 1-14). Hematology parameters (platelets FIG. 5, lymphocytes FIG. 6, neutrophils FIG. 7) were measured on days 5 and 12, and animal body weight (FIG. 8) was measured on days 1, 3, 5, 8, 10 and 12. For hematology analysis, blood was collected 12 hours following the final dose via cardiac puncture, […] was prepared, and hematology profiles were measured on Hemavet 950FS analyzer.

RPMI-8226 xenografts [4] = assay: RPMI-8226 dose ranging xenograft (Example 4); format: in vivo, mice; conditions: for % Cure Rate: no palpable tumor 158 days from study start
Protocol: Female SCID-Beige mice were inoculated subcutaneously with 10×10^6 RPMI-8226 tumor cells in 50% 1×PBS 50% Matrigel™ (100 μL). […] Tumor size and animal body weight were measured on the indicated days over the course of each study. Tumor volume was calculated using the formula, volume=[…]. Percent cure rate indicates an animal has no palpable tumor 158 days from study start.

[5] = Predicted in vitro IC50 of filanesib
[6] = Dose limiting toxicity of filanesib; conditions: in vivo
[7] = filanesib in plasma, single IP bolus filanesib 12.5 mg/kg alone or with pomalidomide 10 mg/kg
[8] = Day 5, filanesib 12.5 mg/kg IP days 1 and 2 and/or pomalidomide 1 mg/kg IP QD days 1-14
[9] = Day 12, filanesib 12.5 mg/kg IP days 1 and 2 and/or pomalidomide 1 mg/kg IP QD days 1-14
[10] = filanesib 12.5 mg/kg IP days 1 and 2 and/or pomalidomide 1 mg/kg IP QD days 1-14
[11] = filanesib 7.5 mg/kg IP days 1 and 2 and/or pomalidomide 5 mg/kg IP QD days 1-21
[12] = filanesib 12.5 mg/kg IP days 1 and 2 and/or pomalidomide 10 mg/kg IP QD days 1-21
[13] = pomalidomide in plasma, single IP bolus pomalidomide 10 mg/kg alone or with filanesib 12.5 mg/kg
[14] = Day 5, pomalidomide 10 mg/kg IP QD days 1-14, alone or with filanesib 12.5 mg/kg IP days 1 and 2
[15] = Day 12, pomalidomide 10 mg/kg IP QD days 1-14, alone or with filanesib 12.5 mg/kg IP days 1 and 2

In the case of `CON(C)C(=O)N1N=C(c2cc(F)ccc2F)S[C@@]1(CCCN)c1ccccc1.Cl` [filanesib, (S)-2-(3-aminopropyl)-5-(2,5-difluorophenyl)-N-methoxy-N-methyl-2-phenyl-1,3,4-thiadiazole-3(2H)-carboxamide hydrochloride], the AUC(0-t) [1, 7] is reported as 3090 ng·h/mL, the Cmax [1, 7] is reported as 1660 ng/mL and the Tmax [1, 7] is reported as 4.98 min. The “% Complete Response” value (RPMI-8226 xenografts [2]) was 50%, the “% Max Body Weight Loss” value (RPMI-8226 xenografts [2]) was 5.3% and the cure rate (RPMI-8226 xenografts [2]) was 0%. For the same compound, the “% Complete Response” value (JJN3 xenografts) was 0%, the “% Max Body Weight Loss” value (JJN3 xenografts) was 6.6% and the “% Complete Response” value (H929 xenografts) was 0%. The “% Max Body Weight Loss” value (H929 xenografts) was 8.9%, the “% Decrease in Cell Counts from Vehicle, Lymphocytes” value (“% Decrease … Lymphocytes” for short) [3, 8] was 34% and the “% Decrease in Cell Counts from Vehicle, Neutrophils” value (shortened to “% Decrease … Neutrophils”) [3, 8] was 69%. For the same compound, the “% Decrease in Cell Counts from Vehicle, Platelets” value (“% Decrease … Platelets” below) [3, 8] was 9%, the “% Decrease … Lymphocytes” value [3, 9] was 0% and the “% Decrease … Neutrophils” value [3, 9] was 0%. For the same compound, the “% Decrease … Platelets” value [3, 9] was 0%, the “% Max Body Weight Loss” value [3, 10] was 0% and the “neutropenia / neutrophil loss, in words” value [3] was “caused neutropenia”. For the same compound, the “% Max Body Weight Loss” value (RPMI-8226 xenografts [4]; [11]) was 3.7%, the “% Cure Rate” value (RPMI-8226 xenografts [4]; [11]) was 0% and the “% Max Body Weight Loss” value (RPMI-8226 xenografts [4]; [12]) was 8.0%. For the same compound, the “% Cure Rate” value (RPMI-8226 xenografts [4]; [12]) was 0%, the “predicted in vitro IC50” value [5] was “about 0.2 ng/mL” and the “major dose limiting toxicity (DLT)” value [6] was “neutropenia”.
For `Nc1cccc2c1C(=O)N(C1CCC(=O)NC1=O)C2=O` (centres unmarked) [pomalidomide], the AUC(0-t) [1, 13] was 3080 ng·h/mL, the Cmax [1, 13] was 956 ng/mL and the Tmax [1, 13] was 4.98 min. For the same compound, the “% Complete Response” value (RPMI-8226 xenografts [2]) was 12.5%, the “% Max Body Weight Loss” value (RPMI-8226 xenografts [2]) was 0.9% and the cure rate (RPMI-8226 xenografts [2]) was 0%. The “% Complete Response” value (JJN3 xenografts) was 0%, the “% Max Body Weight Loss” value (JJN3 xenografts) was 0% and the “% Complete Response” value (H929 xenografts) was 28.5%. The “% Max Body Weight Loss” value (H929 xenografts) was 4.4%, the “% Decrease … Lymphocytes” value [3, 8] was 9% and the “% Decrease … Neutrophils” value [3, 8] was 27%. The “% Decrease … Platelets” value [3, 8] was 8%, the “% Decrease … Lymphocytes” value [3, 14] was 4% and the “% Decrease … Neutrophils” value [3, 14] was 21%. For the same compound, the “% Decrease … Platelets” value [3, 14] was 10%, the “% Decrease … Lymphocytes” value [3, 9] was 0% and the “% Decrease … Neutrophils” value [3, 9] was 0%. The “% Decrease … Platelets” value [3, 9] was 0%, the “% Decrease … Lymphocytes” value [3, 15] was 0% and the “% Decrease … Neutrophils” value [3, 15] was 0%. The “% Decrease … Platelets” value [3, 15] was 0%, the “% Max Body Weight Loss” value [3, 10] was 0% and the “neutropenia / neutrophil loss, in words” value [3] was “caused neutropenia”. For the same compound, the “% Max Body Weight Loss” value ([3]; pomalidomide 10 mg/kg IP QD days 1-14, alone or with filanesib 12.5 mg/kg IP days 1 and 2) was 0%, the “% Max Body Weight Loss” value (RPMI-8226 xenografts [4]; [11]) was 0.5% and the “% Cure Rate” value (RPMI-8226 xenografts [4]; [11]) was 0%. The “% Max Body Weight Loss” value (RPMI-8226 xenografts [4]; [12]) was 1.4% and the “% Cure Rate” value (RPMI-8226 xenografts [4]; [12]) was 0%.

— patent US20150045391A1, “FILANESIB COMBINED WITH POMALIDOMIDE DISPLAYS ENHANCED ANTI-TUMOR ACTIVITY” (Array BioPharma Inc., priority 2013, published 2015)
